Patent publication US10858357B2, “Water-soluble myosin 2 inhibitors for the treatment of neurological, neuropathic or psychiatric diseases” (PARIS SCIENCES ET LETTRES-QUARTIER LATIN, priority 2016, dated 2020)
In brackets after ≈: the same amount, converted by molar mass.

Columns and labels:
[1] = system: EGFP-α-tubulin H2B-mCherry HeLa Kyoto cells; test: HeLa cell toxicity, 12-hour confocal time-lapse imaging; assay type: cell-based, human; conditions: time-lapse imaging, concentration not given
Experimental: For phototoxicity experiments, confocal time-lapse imaging of HeLa Kyoto H2B-mCherry eGFP-α-tubulin cells for 12 hours was performed in DMEM further supplemented with 25 mM HEPES in order to achieve CO2 independent media. Confocal time-lapse imaging was performed on a Zeiss LSM 710 using a Plan Apo 20×/0.8 objective, with the following parameters: 2% laser intensity at λexc=488 nm, 3% laser intensity at λexc=543 nm, 1.2× zoom, average 4, line step 1, 1000×1000 pixels, 0.35 μm pixel size, 0.65 μs dwell time, 3 slice/z-stack with 7 μm between slices at every 10 minutes.
To test the cytotoxicity of neurelaxin-A in live-cell fluorescence microscopy, time-lapse EGFP-α-tubulin H2B-mCherry labeled HeLa Kyoto cells were imaged in a confocal microscope (FIG. 4a).
Cells were treated with 50 μM neurelaxin-A and imaged for 12 hours applying 3 z-sections every 10 minutes.

[2] = cited from earlier work; for solubility: Képiró et al., Angew. Chem. Int. Ed., 2014
[3] = system: cannabinoid-induced working memory loss; test: Novel object recognition (NOR) test with CP55,940; assay type: in vivo; conditions: CP55,940 1 hour prior to familiarization, no neurelaxin-A
Experimental: In this experiment, a novel object recognition (NOR) test was performed.
In this test animals are presented to two objects and it will explore them for a while. After, one of the objects is changed for a new and different one. Under normal circumstances animals will be attracted to the novel object and will spend more time exploring it, by comparison to the older and already known object. Animals with memory deficit will explore both objects equally.
The synthetic cannabinoid CB1R agonist CP55,940 is administrated 1 hour prior to the familiarization step. Thirty minutes prior to the familiarization animals are either treated or not with neurelaxin-A.

myosin 2 = conditions: Lucas-Lopez et al., 2008; cited from earlier work

Compound: Cc1ccc2c(c1)C(=O)C1(O)CCN(c3ccccc3)C1=N2 (stereo not drawn) [Blebbistatin]
- cytotoxic phenotype in HeLa Kyoto cells (positive control) [1]: cells round up from the surface and eventually die
- solubility [2]: around 20 μM
- water solubility: concentration above which slow precipitation is observed ([2]; background statement): 10 µM (≈ 2.92 µg/mL)

Compound: CCCCCCC(C)(C)c1ccc([C@@H]2C[C@H](O)CC[C@H]2CCCO)c(O)c1 [CP55,940, reference compound]
- NOR test: exploration of familiar and novel object [3]: spend similar time exploring both objects

Compound: O=C1c2ccc([N+](=O)[O-])cc2N=C2N(c3ccccc3)CCC12O (stereo not drawn) [Nitroblebbistatin]
- IC50 (myosin 2): 27.5 µM

Compound: Cc1ccc2c(c1)C(=O)C1(O)CCN(c3ccc([N+](=O)[O-])cc3)C1=N2 (stereo not drawn) [Para-nitroblebbistatin]
- solubility [2]: around 20 μM
